# Reference: patent US9493782B2, “Inducible promoter sequences for regulated expression and methods of use” (PIONEER HI-BRED INTERNATIONAL INC, priority 2012, dated 2016)
# Assays:
# [1] = tested on: IN2-2 transcript; assay: Northern blot of maize anther RNA from CBSU-treated plants, IN2-2 probe; type: in vivo; conditions: CBSU-treated male-fertile and male-sterile plants; not detectable in untreated controls; FIG. 2
# Method: (§1) Wild type maize plants were grown to the meiosis stage of microspore development. Plants were watered with 30 mg 2-CBSU and allowed to develop to the quartet and early vacuolate stage of microspore development. PolyA+ anther RNA was isolated from wild type control and CBSU treated plants and stored. A cDNA library was constructed from mRNAs isolated from CBSU-treated plants, arrayed onto nylon filters and stored. A cDNA subtraction library was generated using the Clontech PCR-Select cDNA Subtraction Kit (#K1804-1) following the manufacturer's instructions to enrich for CBSU-specific transcripts. Using this approach anther PolyA+ mRNA from wild-type plants was used to enrich for transcripts found in the anther PolyA+ mRNA from CBSU treated plants. […]
# (§2) To determine whether the ZmCAS1 cDNA was 1) induced in maize anthers by CBSU-treatment and 2) reduced or absent in tapetum and microspore-ablated maize anthers from CBSU-treated 5126:DAM plants, a 477 bp ZmCAS1c-1 DNA fragment (SEQ ID NO:1), as well as DNA fragments from ZmMS45, Zm5126, ZmActin, and ZmUbiquitin (Cigan et al. 2001. […] MS45 and 5126 transcripts were easily detected in anther RNAs from male-fertile plants but absent in anther RNAs from male-sterile plants (FIG. 2) further supporting the observation that these RNAs are localized to the maize tapetum (Cigan et al. 2001. Sex. Plant Reprod. 14, 135-142).
# [2] = tested on: ZmCAS1 transcript; assay: Northern blot of maize callus, leaf and anther RNA treated with CBSU, ZmCAS1 probe; conditions: CBSU-treated tissues; FIG. 3
# [3] = tested on: 1.7 kb ZmCAS1 promoter driving MS45; assay: Western analysis of MS45 protein in ms45/ms45 maize plants transformed with PHP16973; type: in vivo; conditions: PHP16973 plants watered with 30 mg CBSU at meiosis stage, collected 2 days later
# [4] = tested on: 1.7 kb ZmCAS1 promoter driving GUS reporter; assay: GUS expression in leaf punches of maize plants transformed with PHP16975; type: in vivo; conditions: 3 PHP16975 plants, about 5 leaf stage, 2 days after watering with 30 mg 2-CBSU; FIG. 5
# Method: Plants were also regenerated from callus events containing PHP16975 and grown in the greenhouse to approximately the 5 leaf stage. At this stage of development, leaf punches from plants regenerated from the 3 bialophos-resistant events shown in FIG. 5 were collected pre- (C) and post-watering (S) with 30 mg of 2-CBSU to examine GUS expression in leaf in response to application of the safener.
# [5] = tested on: 1.7 kb ZmCAS1 promoter driving GUS reporter; assay: GUS staining (X-Gluc) of maize callus events transformed with PHP16975; type: cell-based; conditions: room temperature, 18 hours, FIG. 4A
# Text: Agrobacterium-mediated transformation of immature embryos was used to generate integrated copies of PHP16974 (SEQ ID NO:11; ZmCAS1HindIII Pro:GUS/35SPAT) comprising the 1.0 kb ZmCAS1 promoter (SEQ ID NO:9), PHP16975 (SEQ ID NO:12, ZmCAS1BamPro:GUS/35SPAT) comprising the 1.7 kb ZmCAS1 promoter (SEQ ID NO:10) and PHP16972 (SEQ ID NO:13, ZmCAS1HindIII Pro:MS45/35SPAT) comprising the 1.0 kb ZmCAS1 promoter or PHP16973 (SEQ ID NO:14, ZmCAS1BamPro:MS45/35SPAT:) comprising the 1.7 kb ZmCAS1 promoter.
# To determine whether the 1.7 kb or the 1.0 kb ZmCAS1 promoter from maize could direct induced expression of the GUS reporter, three bialophos-resistant callus events were placed onto maintenance media and maintenance media containing increasing amounts of the safener CBSU-2 for at room temperature for 18 hours, removed and stained with X-Gluc to detect GUS activity.
# [6] = tested on: truncated 1.0 kb ZmCAS1 promoter driving GUS reporter; assay: GUS staining (X-Gluc) of rice callus events transformed with PHP16974; type: cell-based, Oryza sativa cv. Kitaake; conditions: four PHP16974 events, 100 mg/liter CBSU, 24 hours; FIG. 9
# Text: To determine whether the ZmCAS1 promoter could conditionally regulate expression in response to safener treatment or heat treatment in plant species other than maize, Agrobacterium-mediated transformation was used to generate integrated copies of PHP16974 (ZmCAS1HindIII Pro:GUS) comprising the truncated 1.0 kb ZmCAS1 promoter for studies in rice. Scutellum from 10-14 day old germinating seeds (Oryza sativa cv. Kitaake) was used for rice transformation experiment (Toki. 1997, PI Mol. Biol Reporter 15:16-21). Bialophos-resistant callus events containing PHP16974 were selected and screened for their ability to respond to safener application. Four independent bialophos-resistant events were grown on maintenance media or maintenance media containing 100 mg/liter CBSU for 24 hours, removed and stained with X-Gluc. […] PHP16974 bialophos-resistant events were regenerated into plants. Leaf tissue was collected from these plants and used for DNA hybridization analyses to identify single-copy PHP16974 insertions. These plants were allowed to set selfed seed and were used for subsequent studies to monitor GUS expression under the transcriptional control of the ZmCAS1 promoter. Sixteen seed were selected from 2 single-copy PHP16974 events were sterilized, grown on hormone-free media at 28° C. or 37° C. for 48 hours and allowed to germinate. […]
# [7] = tested on: ZmCAS1 transcript; assay: Northern blot of maize anther RNA from CBSU-treated plants, ZmCAS1 probe; type: in vivo; conditions: FIG. 2
# Method: as §1, §2
# [8] = tested on: 1.0 kb ZmCAS1 promoter driving MS45; assay: Northern analysis of MS45 mRNA in ms45/ms45 maize callus transformed with PHP16972; type: cell-based; conditions: five PHP16972 ms45/ms45 callus events, 100 mg/liter CBSU, room temperature, 18 hours; FIG. 6
# Text: T-DNA vectors PHP16972 (SEQ ID NO:13, ZmCAS1HindIII Pro: MS45/35S:PAT) and PHP16973 (SEQ ID NO: 14, ZmCAS1 BamPro:MS45/35S:PAT) were used to transform maize callus which was generated to contain a segregating population of MS45/ms45 heterozygous and ms45/ms45 homozygous mutant plants. In order to detect MS45 RNA or protein expression under the control of the 1.0 or 1.7 kb ZmCAS promoter in maize anthers, plants containing a naturally occurring mutation in the maize MS45 gene which results in loss of MS45 RNA and protein were used for these studies. Pollen from MS45/ms45 plants were used to fertilize male-sterile ms45/ms45 plants for the purpose of generating embryos which would be ms45/ms45 as described in Cigan et al 2001. […] Five random bialophos-resistant callus events containing integrated copies of PHP16972 were placed onto maintenance media (FIG. 5, (−)) and maintenance media containing 100 mg/liter safener CBSU-2 (FIG. 5 (+)) at room temperature for 18 hours, removed and PolyA+ RNA prepared and used for RNA analysis as described (Cigan et al. 2001. Sex. Plant Reprod. 14, 135-142) using the ZmMS45 and ZmActin probes for hybridization analysis. […] A very low signal was observed when callus was grown in the absence of CBSU. Actin was used as a control probe to show nearly equivalent RNA levels were present in all samples. […]
# [9] = tested on: truncated 1.0 kb ZmCAS1 promoter driving GUS reporter; assay: GUS staining (X-Gluc) of maize callus events transformed with PHP16974; type: cell-based; conditions: seven PHP16974 callus events, 100 mg/liter CBSU, room temperature; FIG. 4B
structure (smiles),measurement,setting,value
"NC(=O)NS(=O)(=O)c1ccccc1Cl [CBSU, N-(aminocarbonyl)-2-chlorobenzenesulfonamide]",IN2-2 hybridization signal in anther mRNA,[1],strong hybridization signals
same,"ZmCAS1 hybridization in mRNAs from callus, leaf and anther",[2],strong hybridization
same,MS45 protein in leaf extracts,[3]; FIG. 7,increased steady-state levels of the MS45 protein
same,MS45 protein in anther extracts,[3]; FIG. 8,Increased MS45 protein
same,GUS expression in leaf punches,[4],strong GUS expression
same,GUS expression in callus,[5]; 10 mg/l CBSU,low levels of GUS expression
same,GUS expression in callus,[5]; 100 mg/l CBSU,strong GUS expression
same,GUS expression in rice callus,[6],strong GUS expression
same,ZmCAS1 hybridization signal in anther mRNA,"[7]; male-fertile plants watered with 30 mg 2-CBSU (+, F)",strong hybridization signals
same,ZmCAS1 hybridization signal in anther mRNA,"[7]; male-sterile 5126:DAM plants, CBSU-treated (+, S)",reduced ZmCAS1 signal
same,MS45 mRNA hybridization signal in callus,[8],strong induction
same,GUS expression in callus,[9],inducible GUS expression
